Consider three molecules from paper PMC7994819, “Pharmacokinetics and metabolomics investigation of an orally modified formula of standardized Centella asiatica extract in healthy volunteers” (Scientific Reports, 2021).

Read-outs that look alike come from different tables or passages of the source. Bounds are passed on as bounds.

Series [1] is described as follows: Clinical pharmacokinetics in plasma (LC–MS/MS, non-compartmental analysis) after oral modified formula ECa 233 capsules. It counts as in vivo, human (healthy Thai volunteers). How it is done:
This was a single-center, with an open-label, two-sequence of dosages (250 and 500 mg), two-periods of study (single and multiple dose) conducted in fasting condition (Fig. 1). […] All blood samples were centrifuged at 4 °C, 3200 × g for 10 min. […] Feces were also collected from one of the volunteers for detecting the possible presence of any eliminated compounds. Feces samples were collected each time that a volunteer defecated on day 1-3, 4-6 and 7-9 during the study period. These samples were immediately fixed with methanol and prepared by our previously described method of protein precipitation. […] Plasma, urine and fecal samples were then stored at - 80 °C until analysis. […] Then they had another set of blood and urine samples collected similar to the single dose study. […] Sample preparation was performed by protein precipitation with two internal standards (glycerrhizin and […]) to correct the quantitative analysis of parent compounds and of their metabolites. Briefly, 200 μL of methanol was added followed by vortex mixing with 50 μL of each sample for 10 min and then centrifuged at 12,000 × g, 4 °C, 10 min. Quantitative determination of the parent compounds and their active metabolites in plasma and urine were carried out by using liquid chromatography tandem mass spectrometry (LC-MS/MS): LCMS-8060 (Shimadzu Corp. Japan) according to a previously validated and published bioanalytical method. […] The MS/MS system was operated using an ESI source in negative mode with MRM. For m/z transition; […] Non-compartmental analysis was applied to determine pharmacokinetic parameters and performed by PK solutions software (version 2.0). […] The apparent clearance (Cl/F) after oral administration was calculated as Cl/F = Dose/AUC, where F is the absolute oral bioavailability. The apparent volume of distribution (Vd/F) was estimated using Vd/F = Dose/(AUC × kel). The Cmax and Tmax were determined directly from the observed concentration-time curve.

Series [2] is described as follows: Urine and feces excretion after oral modified formula ECa 233 capsules (LC–MS/MS). Format: in vivo, human (healthy Thai volunteers). The procedure: This was a single-center, with an open-label, two-sequence of dosages (250 and 500 mg), two-periods of study (single and multiple dose) conducted in fasting condition (Fig. 1). […] All blood samples were centrifuged at 4 °C, 3200 × g for 10 min. […] Feces were also collected from one of the volunteers for detecting the possible presence of any eliminated compounds. Feces samples were collected each time that a volunteer defecated on day 1-3, 4-6 and 7-9 during the study period. These samples were immediately fixed with methanol and prepared by our previously described method of protein precipitation. […] Plasma, urine and fecal samples were then stored at - 80 °C until analysis. Sample preparation was performed by protein precipitation with two internal standards (glycerrhizin and […]) to correct the quantitative analysis of parent compounds and of their metabolites. Briefly, 200 μL of methanol was added followed by vortex mixing with 50 μL of each sample for 10 min and then centrifuged at 12,000 × g, 4 °C, 10 min. […] The MS/MS system was operated using an ESI source in negative mode with MRM.

For series [3] the following is noted: in vivo; cited from earlier work.
Where [4] appears, read: human, plasma, po, 250 mg, plasma, multiple dose oral, Day 7 (T0-72 h), ECa 233 250 mg daily, mean ± SD, n=12, read-out: AUC.
Where [5] appears, read: human, plasma, po, 250 mg, plasma, multiple dose oral, Day 7 (T0-72 h), ECa 233 250 mg daily, mean ± SD, n=12, read-out: Cmax.
[6] abbreviates: human, plasma, po, 250 mg, plasma, multiple dose oral, Day 7 (T0-72 h), ECa 233 250 mg daily, median [IQR], n=12, read-out: Tmax.
[7] abbreviates: human, plasma, po, 250 mg, plasma, single dose oral, Day 1 (T0-24 h), ECa 233 250 mg, mean ± SD, n=12, read-out: AUC.
Setting [8] is: human, plasma, po, 250 mg, plasma, single dose oral, Day 1 (T0-24 h), ECa 233 250 mg, mean ± SD, n=12, read-out: Cmax.
Setting [9] is: human, plasma, po, 250 mg, plasma, single dose oral, Day 1 (T0-24 h), ECa 233 250 mg, median [IQR], n=12, read-out: Tmax.
The mark [10] stands for this setting: human, plasma, po, 500 mg, plasma, multiple dose oral, Day 7 (T0-72 h), ECa 233 500 mg daily, mean ± SD, n=11, read-out: AUC.
[11] abbreviates: human, plasma, po, 500 mg, plasma, multiple dose oral, Day 7 (T0-72 h), ECa 233 500 mg daily, mean ± SD, n=11, read-out: Cmax.
Setting [12] is: human, plasma, po, 500 mg, plasma, multiple dose oral, Day 7 (T0-72 h), ECa 233 500 mg daily, median [IQR], n=11, read-out: Tmax.
[13] abbreviates: human, plasma, po, 500 mg, plasma, single dose oral, Day 1 (T0-24 h), ECa 233 500 mg, mean ± SD, n=11, read-out: AUC.
Setting [14] is: human, plasma, po, 500 mg, plasma, single dose oral, Day 1 (T0-24 h), ECa 233 500 mg, mean ± SD, n=11, read-out: Cmax.
[15] abbreviates: human, plasma, po, 500 mg, plasma, single dose oral, Day 1 (T0-24 h), ECa 233 500 mg, median [IQR], n=11, read-out: Tmax.
The mark [16] stands for this setting: plasma, oral modified formula ECa 233 capsules.

For `C[C@H]1[C@H](C)CC[C@]2(C(=O)O)CC[C@]3(C)C(=CC[C@@H]4[C@@]5(C)C[C@@H](O)[C@H](O)[C@@](C)(CO)[C@@H]5CC[C@]43C)[C@H]12` [ASA, Asiatic acid], the AUC in series [1] (setting [4]) was 1.01 ± 0.221 µg·h/mL; in series [1] (setting [7]) it was 0.648 ± 0.117 µg·h/mL; in series [1] (setting [10]), 1.39 ± 0.333 µg·h/mL; in series [1] (setting [13]), 0.733 ± 0.15 µg·h/mL. Further, the Cmax in series [1] (setting [5]) worked out at 0.0782 ± 0.0264 µg/mL; in series [1] (setting [8]), 0.0798 ± 0.0193 µg/mL; in series [1] (setting [11]), 0.17 ± 0.0538 µg/mL; in series [1] (setting [14]) it was 0.102 ± 0.0208 µg/mL. In addition, the Tmax in series [1] (setting [6]), in series [1] (setting [9]), in series [1] (setting [12]) and in series [1] (setting [15]) was 1.5 h in each case. In addition, the “time after dosing at which Cmax was observed” value (“time after dosing” below) in series [1] (setting [16]) fell in the range of 1 to 2 h. Further, the presence in feces result in series [2] (fecal samples from one volunteer) is recorded as “found in the feces”. Besides, the elimination into urine result in series [2] (urine 0–24 h after oral dosing of 250 or 500 mg ECa 233) is given as “absence of the metabolites in the urine”.
`C[C@H]1[C@H](C)CC[C@]2(C(=O)O)CC[C@]3(C)C(=CC[C@@H]4[C@@]5(C)C[C@@H](O)[C@H](O)[C@@](C)(CO)[C@@H]5[C@H](O)C[C@]43C)[C@H]12` [MDA, Madecassic acid]: the AUC worked out at 0.437 ± 0.175 µg·h/mL in series [1] (setting [4]), 0.41 ± 0.1 µg·h/mL in series [1] (setting [7]), 0.516 ± 0.157 µg·h/mL in series [1] (setting [10]) and 0.476 ± 0.117 µg·h/mL in series [1] (setting [13]). Further, the Cmax in series [1] (setting [5]) turned out to be 0.0614 ± 0.0205 µg/mL; in series [1] (setting [8]), 0.0661 ± 0.0171 µg/mL; in series [1] (setting [11]), 0.0998 ± 0.0276 µg/mL; in series [1] (setting [14]), 0.0723 ± 0.0163 µg/mL. Further, the Tmax is 2 h in series [1] (setting [6]), 1.5 h in series [1] (setting [9]), 1.5 h in series [1] (setting [12]) and 1.5 h in series [1] (setting [15]). Besides, in series [1] (setting [16]), the “time after dosing” value was 1 to 2 h.
For Madecassoside [MDS], the “time after dosing” value in series [1] (human, in vivo, po) is at most 1 h. In series [1] (human, in vivo, po, 250 mg), the AUC came out at 0.07538 ± 0.0266 µg·h/mL, the highest concentration (Cmax) came to 0.00957 ± 0.00334 µg/mL and the Tmax was 1 [0.5] h. For the same molecule, in series [1] (human, in vivo, po, 500 mg), the AUC worked out at 0.14116 ± 0.04115 µg·h/mL, the Cmax turned out to be 0.01273 ± 0.00273 µg/mL and the Tmax is 1 [0.5] h. For the same molecule, in series [3], the “excretion (0–72 h) in feces” value is 24.68% and the “excretion (0–72 h) in urine” value is reported as 0.25%.

By AUC is commonly meant concentration integrated over time. By Cmax is commonly meant the peak of the concentration-time curve.
